Assay results taken from patent publication US9822112B2, “Heteroarylene-bridged benzodiazepine dimers, conjugates thereof, and methods of making and using” (priority 2015, dated 2017).

How the values were obtained:
Assay in all cases: Cytotoxic activity of dimers (ATP luminescence or MTS cell proliferation assay)
Type in all cases: cell-based
[1] = system: N87 gastric cancer cell line; conditions: N87 cells; free dimer; 72 h incubation
Procedure: (§1) The cytotoxic activity of dimers of this invention can be tested against various cancer cell lines, such as H226 lung cancer, DMS 79 lung cancer, H187 lung cancer, N87 gastric cancer, 786-O renal cancer, and/or OVCAR3 ovarian cancer cell lines. The ability of dimers to inhibit cell proliferation can be measured by either an ATP luminescence assay or an MTS cell proliferation assay.
(§2) This is a general procedure for an ATP luminescence assay: Cells are seeded at 1×10^3 cells/well in 96-well plates for 3 h for ATP CellTiterGlo™ assays, respectively. Serial dilutions (1:3) of compounds are added to the wells. Plates are allowed to incubate for 72 h. A CellTiterGlo™ cell viability kit from Promega is used to measure ATP content of cells treated with test compounds following manufacturer's instruction. A decrease in the ATP content is a measure of decrease in cellular viability. The EC50 value—the concentration at which an agent reduces cell viability by 50% of the maximum effect—can be calculated using PRISM™ software, version 5.0 (GraphPad Software, La Jolla, Calif., USA).
(§3) The MTS cell proliferation assay was performed as follows: CellTiter 96 Aqueous Non-Radioactive Cell proliferation Kit from Promega (Madison, Wis.) is used to determine the number of viable cells in cell proliferation assay. Tumor cells are plated at certain seeding densities in sterile 384-well black clear bottom Matrix plates at 40 μL per well and incubated overnight at 37° C. in 5% CO2 before assaying. On the next day, one set of cell plates (10 plates) is used to determine time zero cell density, and 3-(4,5-dimethylthiazol-2-yl)-5-(3-carboxymethoxyphenyl)-2-(4-sulfophenyl)-2H-tetrazolium is added at 4 μL/well into 10 plates followed by incubation at 37° C. in 5% CO2 for three hours. This tetrazolium reagent is bioreduced by […] to form a formazan product which is soluble in aqueous solution. Absorbance at 490 nm is measured on an Envision reader (Perkin Elmer, Boston, Mass.). On the same day, compounds are added into remaining cell plates (T72 plates) and incubated at 37° C. in 5% CO2. After 72 hours, 4 μL MTS reagents are then added into those cell plates. The plates are further incubated at 37° C. in 5% CO2 for three hours and the absorbance values at A490 were measured on an Envision reader.

[2] = system: H187 lung cancer cell line; conditions: Homo sapiens, NCI-H187; H187 cells; free dimer; 72 h incubation
Procedure: as §1, §2, §3

[3] = system: DMS 79 lung cancer cell line; conditions: Homo sapiens; DMS 79 cells; free dimer; 72 h incubation
Procedure: as §1, §2, §3

Row | Structure (SMILES) | IC50 [1] [nM] | IC50 [2] [nM] | IC50 [3] [nM]
1 | COc1cc2c(cc1OCc1cccc(COc3cc4c(cc3OC)C(=O)N3Cc5cc(N)ccc5C[C@H]3C=N4)n1)N=C[C@@H]1Cc3ccccc3CN1C2=O [IIa-03] | 0.03 | 0.002 | 0.002
2 | COc1cc2c(cc1OCc1cc(COc3cc4c(cc3OC)C(=O)N3Cc5ccccc5C[C@H]3C=N4)c3ccccc3n1)N=C[C@@H]1Cc3ccccc3CN1C2=O [IIa-07] | 0.25 |  | 
3 | COc1cc2c(cc1OCc1cccc(COc3cc4c(cc3OC)C(=O)N3Cc5ccccc5C[C@H]3C=N4)n1)N=C[C@@H]1Cc3ccccc3CN1C2=O [IIa-01] | 0.02 | 0.001 | 0.001
4 | COc1cc2c(cc1OCc1cccc(COc3cc4c(cc3OC)C(=O)N3Cc5ccccc5C[C@H]3CN4)n1)NC[C@@H]1Cc3ccccc3CN1C2=O [IIa-15] | 2.88 |  | 
5 | COc1cc2c(cc1OCc1cncc(COc3cc4c(cc3OC)C(=O)N3Cc5ccccc5C[C@H]3C=N4)c1)N=C[C@@H]1Cc3ccccc3CN1C2=O [IIa-06] | 0.14 |  | 
6 | COc1cc2c(cc1OCc1cccc(COc3cc4c(cc3OC)C(=O)N3Cc5cccnc5C[C@H]3C=N4)n1)N=C[C@@H]1Cc3ccccc3CN1C2=O [IIa-16] | 0.08 |  | 
7 | COc1cc2c(cc1OCc1cccc(COc3cc4c(cc3OC)C(=O)N3Cc5cccnc5C[C@@H]3C=N4)n1)N=C[C@@H]1Cc3ccccc3CN1C2=O [Dimer 100] | 0.1 |  | 
8 | COc1cc2c(cc1OCc1cc(CO)cc(COc3cc4c(cc3OC)C(=O)N3Cc5ccccc5C[C@H]3C=N4)n1)N=C[C@@H]1Cc3ccccc3CN1C2=O [IIa-08] | 2.71 |  | 
9 | COc1cc2c(cc1OCc1cc(O)cc(COc3cc4c(cc3OC)C(=O)N3Cc5ccccc5C[C@H]3C=N4)n1)N=C[C@@H]1Cc3ccccc3CN1C2=O [IIa-11] | 4.92 |  | 
10 | COc1cc2c(cc1OCc1cc(Cl)cc(COc3cc4c(cc3OC)C(=O)N3Cc5ccccc5C[C@H]3C=N4)n1)N=C[C@@H]1Cc3ccccc3CN1C2=O [IIa-13] | 0.03 |  | 
